Where two headings read alike, the source gives them in different places.
Legend:
PEA cv Ragtime [1] = assay: Root nodulation, rooting and safening, pea, compost of low pH (Examples 7.5 and 7.7)
Description: (§1) The safener/safening system and the fertiliser were applied to the crops either simultaneously or sequentially.
(§2) Co=100% Cobalt Sulphate (20 g per litre and per hectare). FF1=20 g per litre Cobalt Sulphate (as per Co above) plus “Miracle-Gro” at xl recommended rate (applied at 15 g per 2.5 sq metres). Miracle-Gro contains: 24% N, 4% P, 13% K, plus 0.02% B, 0.03% Cu, 0.19% Fe, 0.05% Mn, 0.001% Mo and 0.03% Zn. FF2=20 g per litre Cobalt Sulphate plus Miracle-Gro at ×2 recommended rate. SAF: at least one from class (f) each at <3 g/l, plus at least one from class (c).
PEA—TRIAL 5—cv Ragtime. Scored/Counted+28 Days after Spraying. Sown in Compost of Low pH (5.0-5.5) on 28 Apr. 2008. Spray Date (VC)=26 May, V1 Date=14 June. Scored/Measured on 9 July. […] No inoculum applied.
Sowing details etc as per Example 7.5.

PEA cv Ragtime [2] = assay: Root nodulation and safening, pea, compost of normal pH (Example 7.6); details: compost of normal pH (6.5)
Description: as §1, §2
PEA—TRIAL 7.6—cv Ragtime. Dates as per Example 7.5 above, but sown in compost of normal pH (6.5). […] No inoculum was applied.

Lettuce cv Set = assay: Safening of fertilisers, pot trial: phytotoxicity and vigour scores, lettuce; assay type: in vivo
Description: (§3) The safening system and the fertilizer were applied either simultaneously or sequentially.
(§4) Sprayed: mid-tillering phase (GS23). Winter Wheat: cv Limerick, sown 4 Jun. […] Sprayed: mid-tillering phase (GS23). Lettuce: cv Set, sown 10 Jul. 2008, at one seed per pot, in John Innes No 1 compost. Date of spraying: 30 July; Dates of measurement: 7 August, 14 August, 28 August. Sprayed: 2 true leaf stage.

[3] = system: Oilseed rape cv Excalibur; details: for Greenness (0-9) (9 = Deeper Green) + 14 Days / Vigour (0-9) (9 = Most Vigour) + 14 days / Greenness (0-9) + 28 Days / Vigour (0-9) + 28 Days: score 0-9
Description: Safening systems were applied to crops of oilseed rape and winter treated with various herbicides (Bifenox (with insecticide), Carbetamide, Propaquizafop, Chlorotoluron, Isoproturon, Flumioxazin). The safening system and the herbicide were applied to the crops either simultaneously or sequentially.
Oilseed rape: cv Excalibur, sown 26 Apr. 2008, at two seeds per 9 cm pot, sown in normal pH multi-purpose compost. Date of spraying: 6 June; Dates of measurement/scoring: 13 June, 20 June, 5 July. Winter wheat: cv Alchemy, sown 23 Apr. 2008, at seven seeds per 9 cm pot, sown in normal pH multi-purpose compost. Date of spraying: 24 May; Dates of measurement/scoring: 31 May, 7 June, 21 June. SAF: at least one from class (f) each at <3 g/l, plus at least one from class (c).
Statistical Layout: Randomised Complete Block trials, under glasshouse conditions, United Kingdom.

Winter Barley cv Saffron = assay: Safening of fertilisers, pot trial: phytotoxicity and vigour scores, winter barley; assay type: in vivo; details: for Phytotoxicity (0-9) (0 = Dead) + 14 Days / Phytotoxicity (0-9) (0 = Dead) + 28 Days: score 0-9, 0 = dead; for Vigour (0-9) (9 = Most Vigour) + 14 days / Vigour (0-9) + 28 Days: score 0-9
Description: as §3, §4

NAVY BEAN cv Mogex = assay: Root nodulation and safening, navy bean, compost of low pH (Example 7.3); details: compost of low pH (5.0-5.5)
Description: as §1, §2
NAVY BEAN cv Mogex. Scored/Counted+28 Days after Spraying. Sown in Compost of low pH (5.0-5.5) on 29 Apr. 2008. Spray Date (VC)=27 May, V1 Date=16 June. Scored/Measured on 11 July. Each treatment represents the mean value of 12 plants, within four replicates. No inoculum applied.

Winter Wheat cv Limerick = assay: Safening of fertilisers, pot trial: phytotoxicity and vigour scores, winter wheat; assay type: in vivo; details: for Phytotoxicity (0-9) (0 = Dead) + 14 Days / Phytotoxicity (0-9) (0 = Dead) + 28 Days: score 0-9, 0 = dead; for Vigour (0-9) (9 = Most Vigour) + 14 days / Vigour (0-9) + 28 Days: score 0-9
Description: as §3, §4

[4] = compost of low pH (5.0-5.5), V1, score 0-9
[5] = low pH compost, application at V1, 0-9 scale
[6] = Table 1.7, lettuce, phosphite fertiliser (KP), score 0-9, 0 = dead
[7] = Table 1.7, lettuce, phosphite fertiliser (KP), score 0-9
[8] = Table 1.8, lettuce, KP/ATS, score 0-9
[9] = Table 1.9, lettuce, general fertilisers, score 0-9, 0 = Dead
[10] = herbicide Bifenox (with insecticide), Table 3.1
[11] = herbicides Carbetamide and Propaquizafop, Table 3.2
[12] = +28 days, herbicide Bifenox (with insecticide), Table 3.1
[13] = +28 days, herbicides Carbetamide and Propaquizafop, Table 3.2
[14] = Table 1.1, winter barley, phosphite fertiliser (KP)
[15] = Table 1.2, winter barley, KP/ATS
[16] = Table 1.3, winter barley, general fertilisers
[17] = Table 1.4, winter wheat, phosphite fertiliser (KP)
[18] = Table 1.5, winter wheat, KP/ATS
[19] = Table 1.6, winter wheat, general fertilisers

Nc1ccccc1C(=O)O [AN, anthranilic acid]
Nodules Per Plant (V1) (PEA cv Ragtime [1]; compost of low pH (5.0-5.5), V1, +28 days after spraying, no inoculum): 16.8 | Nodulation Score (0-9) (V1) (PEA cv Ragtime [1]; [4]): 5.0 | Phyto-Toxicity Score (0-9) (V1) (PEA cv Ragtime [1]; [4]): 5.2 | Vigour Score (0-9) (V1) (PEA cv Ragtime [1]; [4]): 5.5 | Nodules Per Plant (VC) (PEA cv Ragtime [1]; compost of low pH (5.0-5.5), VC): 17.3 | Nod Score (0-9) (VC) (PEA cv Ragtime [1]; compost of low pH (5.0-5.5), VC, score 0-9): 5.2 | Nodules Per Plant (V1) (PEA cv Ragtime [1]; low pH compost, application at V1 (data from Example 7.5)): 16.8 | Nodulation Score (0-9) (V1) (PEA cv Ragtime [1]; [5]): 5.0 | Phyto-Toxicity Score (0-9) (V1) (PEA cv Ragtime [1]; [5]): 5.2 | Rooting Score (0-9) (V1) (PEA cv Ragtime [1]; [5]): 4.2 | Nodules Per Plant (V1) (PEA cv Ragtime [2]; V1, no inoculum): 17.2 | Nodulation Score (0-9) (V1) (PEA cv Ragtime [2]; V1, score 0-9): 5.2 | Phyto-Toxicity Score (0-9) (V1) (PEA cv Ragtime [2]; V1, score 0-9): 7.0 | Vigour Score (0-9) (V1) (PEA cv Ragtime [2]; V1, score 0-9): 6.9 | Nodules Per Plant (VC) (PEA cv Ragtime [2]; VC): 17.1 | Nod Score (0-9) (VC) (PEA cv Ragtime [2]; VC, score 0-9): 5.2 | Phytotoxicity (0-9) (0 = Dead) + 14 Days (Lettuce cv Set; [6]): 7.0 | Phytotoxicity (0-9) (0 = Dead) + 28 Days (Lettuce cv Set; [6]): 7.0 | Vigour (0-9) (9 = Most Vigour) + 14 days (Lettuce cv Set; [7]): 8.0 | Vigour (0-9) + 28 Days (Lettuce cv Set; [7]): 8.0 | Phytotoxicity (0-9) (0 = Dead) + 14 Days (Lettuce cv Set; Table 1.8, lettuce, KP + ammonium thiosulphate (KP/ATS), score 0-9, 0 = dead): 7.0 | Phytotoxicity (0-9) (0 = Dead) + 28 Days (Lettuce cv Set; Table 1.8, lettuce, KP/ATS, score 0-9, 0 = dead): 7.0 | Vigour (0-9) (9 = Most Vigour) + 14 days (Lettuce cv Set; [8]): 8.0 | Vigour (0-9) + 28 Days (Lettuce cv Set; [8]): 8.0 | Phytotoxicity (0-9) (0 = Dead) + 14 Days (Lettuce cv Set; [9]): 7.0 | Phytotoxicity (0-9) (0 = Dead) + 28 Days (Lettuce cv Set; [9]): 7.0 | Vigour (0-9) (9 = Most Vigour) + 14 days (Lettuce cv Set; Table 1.9, lettuce, general fertilisers, score 0-9, 9 = Most Vigour): 8.0 | Vigour (0-9) + 28 Days (Lettuce cv Set; Table 1.9, lettuce, general fertilisers, score 0-9): 8.0 | Phytotoxicity (0-9) (0 = Dead) + 14 Days ([3]; score 0-9, 0 = dead, herbicide Bifenox (with insecticide), Table 3.1): 9.0 | Phytotoxicity (0-9) (0 = Dead) + 14 Days ([3]; score 0-9, 0 = dead, herbicides Carbetamide and Propaquizafop, Table 3.2): 9.0 | Phytotoxicity (0-9) (0 = Dead) + 28 Days ([3]; score 0-9, 0 = dead, +28 days, herbicide Bifenox (with insecticide), Table 3.1): 8.0 | Phytotoxicity (0-9) + 28 Days ([3]; score 0-9, 0 = dead, +28 days, herbicides Carbetamide and Propaquizafop, Table 3.2): 8.0 | Greenness (0-9) (9 = Deeper Green) + 14 Days [3, 10]: 8.0 | Vigour (0-9) (9 = Most Vigour) + 14 days [3, 10]: 9.0 | Greenness (0-9) (9 = Deeper Green) + 14 Days [3, 11]: 8.0 | Vigour (0-9) (9 = Most Vigour) + 14 days [3, 11]: 9.0 | Greenness (0-9) + 28 Days [3, 12]: 8.0 | Vigour (0-9) + 28 Days [3, 12]: 8.0 | Greenness (0-9) + 28 Days [3, 13]: 8.0 | Vigour (0-9) + 28 Days [3, 13]: 8.0 | Phytotoxicity (0-9) (0 = Dead) + 14 Days (Winter Barley cv Saffron; [14]): 7.5 | Phytotoxicity (0-9) (0 = Dead) + 28 Days (Winter Barley cv Saffron; [14]): 8.0 | Vigour (0-9) (9 = Most Vigour) + 14 days (Winter Barley cv Saffron; [14]): 7.0 | Vigour (0-9) + 28 Days (Winter Barley cv Saffron; [14]): 8.0 | Phytotoxicity (0-9) (0 = Dead) + 14 Days (Winter Barley cv Saffron; Table 1.2, winter barley, KP + ammonium thiosulphate (KP/ATS)): 7.5 | Phytotoxicity (0-9) (0 = Dead) + 28 Days (Winter Barley cv Saffron; [15]): 8.0 | Vigour (0-9) (9 = Most Vigour) + 14 days (Winter Barley cv Saffron; [15]): 7.0 | Vigour (0-9) + 28 Days (Winter Barley cv Saffron; [15]): 8.0 | Phytotoxicity (0-9) (0 = Dead) + 14 Days (Winter Barley cv Saffron; Table 1.3, winter barley, general NPK fertilisers (GEN + KP, GENEX)): 7.5 | Phytotoxicity (0-9) (0 = Dead) + 28 Days (Winter Barley cv Saffron; [16]): 8.0 | Vigour (0-9) (9 = Most Vigour) + 14 days (Winter Barley cv Saffron; [16]): 7.0 | Vigour (0-9) + 28 Days (Winter Barley cv Saffron; [16]): 8.0 | Nodules Per Plant (V1) (NAVY BEAN cv Mogex; V1, +28 days after spraying, no inoculum): 20.9 | Nodulation Score (0-9) (V1) (NAVY BEAN cv Mogex; V1, score 0-9): 3.3 | Phyto-Toxicity Score (0-9) (V1) (NAVY BEAN cv Mogex; V1, score 0-9): 6.0 | Vigour Score (0-9) (V1) (NAVY BEAN cv Mogex; V1, score 0-9): 6.0 | Nodules Per Plant (VC) (NAVY BEAN cv Mogex; VC): 23.4 | Nod Score (0-9) (VC) (NAVY BEAN cv Mogex; VC, score 0-9): 3.8 | Phytotoxicity (0-9) (0 = Dead) + 14 Days (Winter Wheat cv Limerick; [17]): 7.5 | Phytotoxicity (0-9) (0 = Dead) + 28 Days (Winter Wheat cv Limerick; [17]): 8.0 | Vigour (0-9) (9 = Most Vigour) + 14 days (Winter Wheat cv Limerick; [17]): 8.0 | Vigour (0-9) + 28 Days (Winter Wheat cv Limerick; [17]): 8.5 | Phytotoxicity (0-9) (0 = Dead) + 28 Days (Winter Wheat cv Limerick; [18]): 8.0 | Vigour (0-9) (9 = Most Vigour) + 14 days (Winter Wheat cv Limerick; [18]): 8.0 | Vigour (0-9) + 28 Days (Winter Wheat cv Limerick; [18]): 8.5 | Phytotoxicity (0-9) (0 = Dead) + 14 Days (Winter Wheat cv Limerick; Table 1.5, winter wheat, thiosulphate and phosphite fertilisers (KP/ATS)): 7.5 | Phytotoxicity (0-9) (0 = Dead) + 14 Days (Winter Wheat cv Limerick; Table 1.6, winter wheat, general NPK fertilisers (GEN + KP, GENEX)): 7.5 | Phytotoxicity (0-9) (0 = Dead) + 28 Days (Winter Wheat cv Limerick; [19]): 8.0 | Vigour (0-9) (9 = Most Vigour) + 14 days (Winter Wheat cv Limerick; [19]): 8.0 | Vigour (0-9) + 28 Days (Winter Wheat cv Limerick; [19]): 8.5

Source: patent US20120088667A1, “SAFENING AGENT” (priority 2009, published 2012)
